Assay [1] concerns HeLa cells. The assay can be described thus: Confocal microscopy with AO/EB staining. In kind it is cell-based, human. The settings on record: complex 1 0.2 μM 20 h, complex 2b 10 μM 16 h. The source says:
Confocal Microscopic Experiment. By examining cell morphology under scanning confocal microscopy, the type of cell death can be distinguished. Early phase of apoptosis is characterized by the formation of apoptotic bodies when the integrity of the cell membrane is maintained without cell lysis. On the other hand, necrosis is characterized by cell lyses with the leaking out of internal cellular components such as DNA. With ethidium bromide (DNA stain) and acridine orange (cell membrane stain) as staining agents, normal, apoptotic and necrotic cells can be distinguished under laser confocal microscopy (Chan et. al., Inorg. Chem. 2002, 41, 3161-3171).

The test system of assay [2] is Bid. Description: Western blotting analysis, Bid. Type of assay: cell-based, human. The following applies: HeLa, 2 μM, 32 h. Here is the method:
(§1) Cells were washed in cold phosphate-buffered saline (PBS) at 4° C. and lysed in a buffer containing 0.05 M Tis.HCl (pH 7.5), 0.25 M NaCl, 0.005 M EDTA, 0.05 M NaF, 1 mM DTT and 1% Triton. Cell lysates were collected and the protein concentration of cell lysates was measured using a Protein detection kit (Bio-Rad). Equal amount of proteins was resolved in a 12% SDS-PAGE gel and transferred onto nitrocellulose membranes. The membrane was blocked with a blocking solution (1×TBS, 0.1% Tween-20 with 5% non-fat dry milk) at room temperature for 1 h, and washed three times with washing buffer (1×TBS, 0.1% Tween-20) for 5 min each. The membrane was then incubated with primary antibody (Caspase 3, Bid, PARP and β-Actin respectively) for overnight at 4° C. The membrane was washed three times with washing buffer for 5 min each before incubation with the corresponding secondary antibody (horse anti-mouse IgG or goat anti-rabbit IgG). Membrane was washed again and signals were detected using an ECL detection kit (Amersham Pharmacia Biotech) followed by the exposure to X-ray films (Fujifilm).
(§2) After treatment with complex 1 for different time intervals, the expressions of caspase 3, Bid and PARP were detected by the Western blotting analysis. […] Moreover, treatment with complex 1 leads to a reduction in the level of un-cleaved Bid.

Assay [3] has as its system Caspase 3. Description: Western blotting analysis, caspase 3. In kind it is cell-based, human. The following applies: HeLa, 2 μM, 32 h. Here is the method:
as §1, §2

Assay [4] concerns calf thymus DNA. The assay can be described thus: Absorption titration with calf thymus DNA. The following applies: Tris buffer. In kind it is binding. Here is the method: The calf thymus DNA was purchased from Sigma-Aldrich Chemical Co. and was purified by phenol-chloroform extraction. The DNA was dissolved in buffer (5 mM Tris, 5 mM NaCl, pH 7.2). The concentration (per base pair) or calf thymus DNA was determined spectophotometrically on the basic of ε260, 13200 M^−1cm^−1bp.
Absorption Titration. Studying the interaction between drugs and DNA is imperative to pharmaceutical chemistry. Since complexation between a ligand molecule and a nucleic acid leads to optical changes, its binding can be studied using spectroscopic methods like fluorescence and electronic absorption spectroscopy (C. V. Kumar, E. H. Asuncion, J. Am. Chem. Soc. 1993, 115, 8547-8553). The binding interactions of lanthanide (III) porphyrin complexes with calf thymus DNA were investigated using UV-vis spectroscopy and depicted in FIGS. 9 and 10 (selected absorption curves were shown for clear plot). By monitoring wavelengths at 410 nm (complex 1) and 430 nm (complex 2b), successive additions of calf thymus DNA to the respective complexes in Tris buffer solution containing <5% DMSO were done until saturation. Moderate hyprochromicities of 27% and 23% in complexes 1 and 2b were found without significant bathochromic spectral shift. […] The values of binding constant K were calculated from a plot of D/Δεap versus D based on the following equation:
Where D is the concentration of DNA, Δεap=|ΔεA−ΔεB| wherein εA=Aobs/[complex], and Δε=|ΔεB−ΔεF|; εB and εF correspond to the extinction coefficients of DNA-bound lanthanide(III) porphyrin complex adduct and its free complex, respectively. By monitoring absorbance at 410 nm (complex 1) and 430 nm (complex 2b), plots of D/Δεap against D are inserted in FIGS. 9 and 10. Linear curves in two graphs were plotted with slopes of 4.63×10^−5 (complex 1) and 3.60×10^−5 (complex 2b) (both R=0.99).

The subject of assay [5] is PARP. Description: Western blotting analysis, PARP. In kind it is cell-based, human. The following applies: HeLa, 2 μM, after the treatment. Here is the method: as §1, §2
A general note: In western blotting, separated proteins are transferred to a membrane and probed.

The subject of assay [6] is human nasopharyngeal carcinoma cells (SUNE1). The assay can be described thus: MTT cell viability assay, SUNE1. In kind it is cell-based. The source says: (§3) Human cervical epitheloid carcinoma cells (HeLa), human hepatocellular carcinoma cells (HepG2 and Hep3B), human breast cancer cells (MCF-7), human coloadenocarcinoma cells (HCT-8), and normal human lung fibroblast cells (CCD-19Lu) were purchased from American Type Culture Collection (ATCC) Rockville, Md., USA. The human hepatocellular cancinoma cells QGY-7703, and the multi-drug resistant cell line QGY-TR50 derived from QGY-7703, were generously provided by Prof. Yong Xie (The Hong Kong University of Science and Technology, Hong Kong PRC). QGY-TR50 cells were isolated and cultured as described (J. Zhou, S. C. Cheng, D. Luo, Y. Xie Biochem. Biophys. Res. Commun. 2001, 280, 1237-1242). Human nasopharyngeal carcinoma cells (SUNE1 and its cisplatin-resistant variant—CNE2) were derived from poorly differentiated NPC in Chinese patients and were generously provided by Dr. S. W. Tsao (The University of Hong Kong, Hong Kong PRC). Cell culture flasks and 96-well microtitre plates were from Nalge Nunc Int. Culture medium, other medium constituents and phosphate buffer saline (PBS) were obtained by Gibco BRL Rockville, Md., USA. Cell Proliferation kit I (MTT) was purchased from Roche. Mannheim, Germany.
(Tetrazolium assays rely on reduction of a dye to a coloured formazan, in cell work by metabolically active cells.)

The subject of assay [7] is cisplatin-resistant variant (CNE2) of human nasopharyngeal carcinoma cells. Description: MTT cell viability assay, CNE2. Type of assay: cell-based.
Source text: as §3

The mark [8] stands for this setting: IC50 of cisplatin divided by IC50 of complex.

The results in this text go back to patent US20100069345A1, “Lanthanide-porphyrin complexes as anti-tumor agents” (priority 2005, published 2010).

The term IC50 denotes the concentration at which inhibition is half-maximal. Read a low IC50 as greater potency in that assay. For the substance [Yb2(OEP)2](μ-OH)2 [Complex 1], the “cell morphology (type of cell death) under confocal microscopy” value in assay [1] was “both living and apoptotic cells were observed”. In addition, the “expression of Bid” value in assay [2] is on record as “decrease dramatically”. In assay [3], the “expression of caspase 3” value is given as “decrease dramatically”. The “hyprochromicity on addition of calf thymus DNA” value in assay [4] (<5% DMSO, until saturation, 410 nm (1), 430 nm (2b)) is on record as 27%. In addition, the “binding constant K with calf thymus DNA” value in assay [4] (UV-vis absorption titration, 20° C.) is given as “(1.59±0.3)×10^6 mol^−1dm^3”. In assay [5], the “level of cleaved PARP (85 kDa)” value is “gradual increase”. Also, the “IC50 ratio cisplatin/complex, SUNE1” value in assay [6] (setting [8]) amounted to 4.8. Further, the IC50 in assay [6] (MTT, 37° C., 48 h, mean ± SD) stood at 2450 nM; in assay [7] (MTT, 37° C., 48 h, mean ± SD), 3350 nM. Also, the “IC50 ratio cisplatin/complex, CNE2” value in assay [7] (setting [8]) was 17.2.
